# Measured values from article PMC6563049, “Radiosynthesis of (R,S)‐[^18F]GE387: A Potential PET Radiotracer for Imaging Translocator Protein 18 kDa (TSPO) with Low Binding Sensitivity to the Human Gene Polymorphism rs6971” (Chemmedchem, 2019).
# Where two headings read alike, the source gives them in different places.
# Experiments:
# [1] = design: method as in PMID 26697963, PMID 26551697, PMID 29114179; settings: cited from earlier work
# [2] = In vivo PET imaging of the brain in healthy rats; settings: healthy male Wistar rats, i.v. tracer injection, 60 min acquisition, n=2
# Experimental: The time–activity curve indicates distribution of radioactivity in the brain, albeit in a modest amount as the investigated animals were healthy.
# Male Wistar rats (n=2; weight: 230 and 302 g) were obtained from Charles River Laboratories, UK. The rats were housed in Techniplast 2000P IVC cages on a layer of Aspen bedding in a room with constant temperature (21±2 °C) and fixed 12 h light–dark regime (lights on at 7:00 am). Food and water were available ad libitum. After arrival, the rats were allowed to acclimatise for at least seven days. This research was regulated under the Animals (Scientific Procedures) Act 1986 Amendment Regulations 2012 following ethical review by the University of Cambridge Animal Welfare and Ethical Review Body (AWERB).
# Prior to scanning, the animals were anaesthetised using isofluorane at a concentration of 5 % in O2, and anaesthesia was maintained at 1.5–2.5 % isofluorane in O2. The femoral vein was cannulated for tracer injection. […]
# Three‐dimensional regions of interest (ROIs) were drawn over the whole brain on an MRI template using PMOD software (version 3.2; PMOD technologies, Zurich, Switzerland). […] The results were expressed as dimensionless standardised uptake values (SUV=[(tissue activity)×(body weight)]/injected dose). SUVs were calculated assuming a specific gravity of 1 g mL^−1 for brain tissue.
# [3] = target: T1, human TSPO wild‐type (Homo sapiens, UniProt P30536); test: Radioligand ([^3H]1) displacement binding on membranes of HEK cells stably transfected with wild-type TSPO; settings: HEK cell membranes, [^3H]1 10 nM, 4 °C, 90 min; mean±SEM, n=3; read-out: Ki (nM) at WT (Ala/Ala) HAB
# T1 construct: expressed in transfected cells; host or cells: HEK cells, stably transfected; membranes
# T1 sequence (P30536 whole entry T147A): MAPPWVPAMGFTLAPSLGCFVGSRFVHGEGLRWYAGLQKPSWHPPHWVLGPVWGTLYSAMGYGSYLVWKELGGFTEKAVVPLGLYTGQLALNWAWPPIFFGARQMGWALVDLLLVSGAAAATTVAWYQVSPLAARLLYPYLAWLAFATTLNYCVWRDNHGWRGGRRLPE
# Experimental: (§1) Binding affinities were measured as per our published protocol.21 Briefly, an Ultra‐Turrax homogeniser was used to prepare membranes from HEK cells stably transfected with wild‐type and A147T TSPO. […] Reactions were terminated by filtration through a 96‐well glass‐fibre filter plate (Millipore), and washed eight times with ice‐cold 50 mM Tris⋅HCl. Microscint 0 was added to the dry filters, and radioactivity read in a Microbeta^2 2450 Microplate Counter (PerkinElmer). Data were analysed using GraphPad Prism 6.0, and a four‐parameter nonlinear regression curve fit was used to calculate K i values. Data are expressed as the mean±SEM from at least three independent experiments.
# [4] = target: T2, TSPO A147T (Homo sapiens, UniProt P30536); test: Radioligand ([^3H]1) displacement binding on membranes of HEK cells stably transfected with A147T TSPO
# T2 construct: expressed in transfected cells; host or cells: HEK cells, stably transfected; membranes
# T2 sequence (P30536 whole entry, stated change not applied): as the sequence (P30536 whole entry T147A) above, with A147T counted along it
# Experimental: as §1, with “Microscint 0 was added to the dry filters, and radioactivity read in a Microbeta^2 2450 Microplate Counter (PerkinElmer).” left out
# [5] = system: TSPO A147T; test: as above; design: species or system human; settings: for Ratio LAB/HAB: Ki at A147T TSPO / Ki at wild-type TSPO
# Experimental: as §1, with “Microscint 0 was added to the dry filters, and radioactivity read in a Microbeta^2 2450 Microplate Counter (PerkinElmer).” left out
# [6] = system: TSPO; settings: cited from earlier work
# [7] = target: rat heart TSPO; design: method as in earlier work; settings: read-out: affinity, rat heart TSPO assay; cited from earlier work
# [8] = system: TSPO A147T; design: method as in PMID 30108706; settings: cited from earlier work
# [9] = system: TSPO; design: method as in PMID 22244939; settings: rats; cited from earlier work
compound,measurement,setting,value
"CC[C@@H](C)N(C)C(=O)c1cc2ccccc2c(-c2ccccc2Cl)n1 [[^11C]1, R‐1‐(2‐chlorophenyl)‐N‐methyl‐N‐(1‐methylpropyl)‐3‐isoquinoline carboxamide]",brain permeability,[1],low brain permeability
CCN(Cc1ccccc1)C(=O)C1CCCc2c1c1c(OC)cccc1n2CC[18F] (racemic) [racemic [^18F]6],entry of radioactivity into the brain (PET),[2],enters the brain
CCN(CC)C(=O)[C@H]1CCCc2c1c1c(OC)cccc1n2CCF [(S)-5],Ki,[3],11.3 ± 0.6 nM
same,Ki,"[4]; HEK cell membranes, [^3H]1 10 nM, 4 °C, 90 min, mean±SEM, n=3, read-out: Ki (nM) at Ala147Thr LAB",58.3 ± 6.4 nM
same,Ratio LAB/HAB,[5],5.1
CC[C@@H](C)N(C)C(=O)c1cc2ccccc2c(-c2ccccc2Cl)n1 [[^11C]1] [R‐1‐(2‐chlorophenyl)‐N‐methyl‐N‐(1‐methylpropyl)‐3‐isoquinoline carboxamide],affinity for TSPO,[6]; selective antagonist of TSPO,9.3 nM
"CCN(Cc1ccccc1)C(=O)[C@@H]1CCCc2c1c1c(OC)cccc1n2CCF [(R)-6, N ‐Benzyl‐N‐ethyl‐9‐(2‐fluoroethyl)‐5‐methoxy‐2,3,4,9‐tetrahydro‐1H‐carbazole‐4‐carboxamide]",Ki,[7],22 nM
"CCN(Cc1ccccc1)C(=O)[C@H]1CCCc2c1c1c(OC)cccc1n2CCF [(S)-6, N ‐Benzyl‐N‐ethyl‐9‐(2‐fluoroethyl)‐5‐methoxy‐2,3,4,9‐tetrahydro‐1H‐carbazole‐4‐carboxamide]",Ki,[3],36.3 ± 6.9 nM
same,Ki,[4],47.3 ± 7 nM
same,Ratio LAB/HAB,[5],1.3
same,Ki,[7],1.04 nM
CCN(CC)C(=O)C1CCCc2c1c1c(OC)cccc1n2CC[18F] (stereo not shown) [[^18F]5],binding affinity ratio LABs/HABs,[8],5.1
same,affinity for TSPO (in words),[6],good affinity
same,brain uptake,[9],good brain uptake
same,specific binding,[9],high specific binding
"CCN(Cc1ccccc1)C(=O)C1CCCc2c1c1c(OC)cccc1n2CCF (racemic) [compound 6, N ‐Benzyl‐N‐ethyl‐9‐(2‐fluoroethyl)‐5‐methoxy‐2,3,4,9‐tetrahydro‐1H‐carbazole‐4‐carboxamide]",sensitivity to the human gene polymorphism rs6971,[5]; conclusion from wild-type versus A147T binding,low sensitivity
